Results from US6429229B1, “Keto acid salts and amine derivatives, and their use for preparing medicines” (Chiesi S.A., priority 1998, dated 2002).

Experiments:
colic distension in rat [1] = assay: Colic distension in rat (colon irritated with 1% acetic acid, balloon distension, abdominal cramps counted); type: in vivo; details: for Mean number of abdominal cramps ± standard error: 10 min colic distension, * = different from placebo at p < 0.05 (Dunnett); for Activity in the model of colic distension (in words) / Dose at/from which active in colic distension: oral route; for Activity in the model of colic distension (in words): 1 to 20 mg/kg
Text: This physiopathological mechanism inspired the creation of the model of distension of the colon first irritated with 1% acetic acid, in rat. […] IIS is characterized by the presence of abdominal pain. Patients having this pathology have a lowered threshold of digestive sensitivity.
The analgesic activity was studied on the model of digestive pain in observed rat. This pain is brought about by distension of the colon with a balloon.
Male Sprague-Dawley rats of about 180 g, fasted from the day before, are used. Under light fluothane anesthesia, an intrarectal probe is introduced 5 cm into the anus and 1.5 ml of 1% acetic acid is injected. An hour and 30 minutes after irritation, a latex balloon (empty diameter 2 mm, length 1 cm) mounted on a polyethylene catheter is introduced into the colon to the site of the irritation.
The product to be tested or the vehicle (distilled water) is administered per os in a volume of 1 ml, then the rat is observed on a Petri dish.
Distension of the colon is carried out 2 hours and 20 minutes after irritation. It is effected at a fixed volume of 1.5 ml of distilled water. The colic distension gives rise to digestive pain manifested by abdominal cramps whose number reflects the intensity of the pain. The colic distension is maintained for 10 minutes in the course of which the abdominal cramps are counted.
Statistical analysis is carried out with the help of the Dunnett test which compares a same group of vehicle animals (40) to several groups of rats (six animals per group) having received the studied molecules. The threshold of significance is fixed at 5%.
The molecules are tested by the oral route at 1-10-20 mg/kg. They are dissolved in distilled water.
The vehicle used as placebo is comprised by distilled water.
Comparative tests 1 to 5 are products available commercially and are used as such, except ornithine chlorhydrate which is salted out by methods known in the literature and stored in solution in water.

writhing test in mice = details: 500 and 1000 mg/kg by intravenous route in mice; cited from earlier work
somatic pain test in rat = details: doses between 300 and 1000 mg/kg by subcutaneous route in rat; cited from earlier work
colic distension in rat [2] = details: cited from earlier work; for Activity on the model of colic distension (in words): background statement
[3] = tested on: writhing test in rat or a mouse; details: i.p. phenylbenzoquinone or 3% acetic acid; cited from earlier work

For `O=C(O)CCC(=O)C(=O)O` [Comparison 1, α-keto-glutaric acid], the “Mean number of abdominal cramps ± standard error” value (colic distension in rat [1]; 1 mg/kg p.o.) was 17 ± 1, the “Mean number of abdominal cramps ± standard error” value (colic distension in rat [1]; 10 mg/kg p.o.) was 17 ± 4 and the “Mean number of abdominal cramps ± standard error” value (colic distension in rat [1]; 20 mg/kg p.o.) was 22 ± 6. The “Activity in the model of colic distension (in words)” value (“Activity in the model” for short) (colic distension in rat [1]) was “inactive”.

With `Cl.NCCC[C@H](N)C(=O)O` [Comparison 2, Ornithine, HCl] the “Mean number of abdominal cramps ± standard error” value (colic distension in rat [1]; 1 mg/kg p.o.) was 20 ± 3, the “Mean number of abdominal cramps ± standard error” value (colic distension in rat [1]; 10 mg/kg p.o.) was 19 ± 6 and the “Mean number of abdominal cramps ± standard error” value (colic distension in rat [1]; 20 mg/kg p.o.) was 18 ± 6. The “Activity in the model” value (colic distension in rat [1]) was “inactive”, the “Activity in the writhing test (in words)” value (writhing test in mice) was “active” and the “Activity in a somatic pain test (in words)” value (somatic pain test in rat) was “active”.

For `CCC(=O)C(=O)O` [Comparison 3, α-keto-butyric acid], the “Mean number of abdominal cramps ± standard error” value (colic distension in rat [1]; 1 mg/kg p.o.) was 19 ± 2, the “Mean number of abdominal cramps ± standard error” value (colic distension in rat [1]; 10 mg/kg p.o.) was 20 ± 3 and the “Mean number of abdominal cramps ± standard error” value (colic distension in rat [1]; 20 mg/kg p.o.) was 19 ± 3. The “Activity in the model” value (colic distension in rat [1]) was “inactive”.

In the case of `NC(=O)CC[C@H](N)C(=O)O` [Comparison 4, Glutamine], the “Mean number of abdominal cramps ± standard error” value (colic distension in rat [1]; 1 mg/kg p.o.) is listed as 21 ± 2, the “Dose at/from which active in colic distension” value (“Dose at/from which active” below) (colic distension in rat [1]) is listed as 10 mg/kg and the “Activity in the test of colic distension (in words)” value (colic distension in rat [2]; 6 mg/kg by rectal route in rat (local administration on the irritated colic mucosa)) is listed as “active”.

In the case of `N=C(N)NCCC[C@H](N)C(=O)O` [Comparison 5, Arginine], the “Mean number of abdominal cramps ± standard error” value (colic distension in rat [1]; 1 mg/kg p.o.) is reported as 20 ± 6, the “Mean number of abdominal cramps ± standard error” value (colic distension in rat [1]; 10 mg/kg p.o.) is reported as 20 ± 9 and the “Dose at/from which active” value (colic distension in rat [1]) is reported as no less than 20 mg/kg.

In the case of `CN1CC[C@]23c4c5ccc(O)c4O[C@H]2[C@@H](O)C=C[C@H]3[C@H]1C5` [Morphine], the “Activity on the model of colic distension (in words)” value (from here on “Activity on the model”) (colic distension in rat [2]) is given as “active”.

For `CC(=O)Oc1ccccc1C(=O)O` [aspirin], the “Activity in the writhing test (in words)” value [3] is given as “active” and the “Activity on the model” value (colic distension in rat [2]) is given as “inactive”.

For `CC(=O)Nc1ccc(O)cc1` [paracetamol], the “Activity in the writhing test (in words)” value [3] is given as “active” and the “Activity on the model” value (colic distension in rat [2]) is given as “inactive”.

For Di-arginine Keto-glutarate [Example 3], the “Mean number of abdominal cramps ± standard error” value (colic distension in rat [1]; 1 mg/kg p.o.) was 17 ± 9.

With Di-ornithine Keto-glutarate [Example 2] the “Dose at/from which active” value (colic distension in rat [1]) was 1 mg/kg.

In the case of “Mono-ornithine Keto-butyrate [Example 6]”, the “Dose at/from which active” value (colic distension in rat [1]) is reported as no less than 1 mg/kg.

With “Mono-ornithine Keto-glutarate [Example 1]” the “Dose at/from which active” value (colic distension in rat [1]) was 1 mg/kg.

In the case of “Ornithine and Arginine Keto-glutarate [Example 4]”, the “Mean number of abdominal cramps ± standard error” value (colic distension in rat [1]; 1 mg/kg p.o.) is reported as 18 ± 2.

In the case of “Ornithine and Glutamine Keto-glutarate [Example 5]”, the “Dose at/from which active” value (colic distension in rat [1]) is reported as no less than 1 mg/kg.
